This is an account of results in article PMC4890880 (ACS infectious diseases, 2016).

Experiment [1] relates to HepG2-A16-CD81EGFP cells. Nature of the experiment: cells. As to conditions: Homo sapiens, HepG2, read-out: % inhibition.
Experiment [2] concerns Plasmodium berghei (Pb-Luc) exoerythrocytic-stage parasites. Nature of the experiment: microbe, parasite or virus in culture.
The test system of experiment [3] is HepG2-A16-CD81EGFP cells. Description: cells. As to conditions: Homo sapiens, HepG2, read-out: % inhibition. The source holds these as a separate data set.
[4] abbreviates: read-out: Inhibition% @ 50 uM rep1.
Where [5] appears, read: read-out: Inhibition% @ 50 uM rep2.

Like-named read-outs stand apart in the source and are kept apart here.

The inhibition is the drop in the measured response relative to a control, in per cent. With `CCOC(=O)c1cnc2c(C)cc(C)cc2c1Nc1ccc(OC)c(OC)c1` [MMV008294], the inhibition at 50 µM in the experiment on HepG2-A16-CD81EGFP cells [1] is -1.86%; in experiment [2] (setting [4]), 0.759%; in experiment [2] (setting [5]), 0%; with HepG2-A16-CD81EGFP cells [3], 1.7%.

Regarding `CSC1=NC(=Nc2c(C)cccc2C)C2(CCC(C(C)(C)C)CC2)N1c1ccc(Cl)cc1` (stereo not shown) [MMV666596], the inhibition at 50 µM with HepG2-A16-CD81EGFP cells [1] was 89.2%; in experiment [2] (setting [4]) it was 104%; in experiment [2] (setting [5]), 106%; with HepG2-A16-CD81EGFP cells [3], 88.7%.

Regarding `O=C(Nc1ccc(Cl)cc1C(=O)Nc1ccncc1)c1ccc(Cl)cc1Cl` [MMV666057], the inhibition at 50 µM was found to be 94.5% in the experiment with HepG2-A16-CD81EGFP cells [1], 101% in experiment [2] (setting [4]), 102% in experiment [2] (setting [5]) and 78.3% with HepG2-A16-CD81EGFP cells [3].

Consider `Cc1cc(Nc2ccc(Cl)cc2)n2nc(C(F)(F)F)nc2n1` [MMV011256], for which the inhibition at 50 µM with HepG2-A16-CD81EGFP cells [1] came out at 37.8%; in experiment [2] (setting [4]), 102%; in experiment [2] (setting [5]) it was 104%; in the experiment on HepG2-A16-CD81EGFP cells [3], 37.6%.

As to `Cc1c(C)n(CC(O)CNC2CCCCC2C)c2ccccc12` (stereo not shown) [MMV665806], the inhibition at 50 µM in the experiment with HepG2-A16-CD81EGFP cells [1] stood at 47.6%; in experiment [2] (setting [4]), 90%; in experiment [2] (setting [5]), 92%; in the experiment on HepG2-A16-CD81EGFP cells [3] it was 31.3%.

Consider `CN1c2ccccc2N(C)C1c1ccc2c(c1)OCO2` [MMV666009], for which the inhibition at 50 µM with HepG2-A16-CD81EGFP cells [1] came to 81%; in experiment [2] (setting [4]) it was 102%; in experiment [2] (setting [5]) it was 105%; in the experiment with HepG2-A16-CD81EGFP cells [3], 81.6%.

For `CCOc1cc2c(cc1OCC)C(c1cc(C)c(O)c(C)c1)NCC2` (stereo not shown) [MMV000483], the inhibition at 50 µM in the experiment with HepG2-A16-CD81EGFP cells [1] turned out to be 55.7%; in experiment [2] (setting [4]), 69%; in experiment [2] (setting [5]), 61%; in the experiment on HepG2-A16-CD81EGFP cells [3], 23%.

Regarding `COc1ccccc1CNC(=O)C1c2ccccc2C(=O)N(CC(C)C)C1c1cccs1` (stereo not shown) [MMV000648], the inhibition at 50 µM in the experiment with HepG2-A16-CD81EGFP cells [1] amounted to 91.6%; in experiment [2] (setting [4]) it was 103%; in experiment [2] (setting [5]), 105%; in the experiment with HepG2-A16-CD81EGFP cells [3] it was 83.2%.

`FC(F)(F)c1cccc(Nc2nc(-c3ccccc3)nc3ncccc23)c1` [MMV665798]: the inhibition at 50 µM in the experiment on HepG2-A16-CD81EGFP cells [1] was found to be 98.3%; in experiment [2] (setting [4]), 103%; in experiment [2] (setting [5]), 104%; in the experiment with HepG2-A16-CD81EGFP cells [3], 95.3%.

`CN(C)c1ccc(C=Cc2nc(=O)c3ccccc3o2)cc1` [MMV006309]: the inhibition at 50 µM with HepG2-A16-CD81EGFP cells [1] came out at 98.3%; in experiment [2] (setting [4]), 104%; in experiment [2] (setting [5]) it was 105%; in the experiment on HepG2-A16-CD81EGFP cells [3], 96.7%.

For the molecule `COc1ccc(-c2nc(NC(=O)CS(=O)(=O)c3ccc(F)cc3)sc2C)cc1` [MMV665915], the inhibition at 50 µM with HepG2-A16-CD81EGFP cells [1] amounted to 95.2%; in experiment [2] (setting [4]), 101%; in experiment [2] (setting [5]), 100%; in the experiment on HepG2-A16-CD81EGFP cells [3] it was 92.4%.

For `Cc1cc(Nc2ccc3ccccc3c2)n2ncnc2n1` [MMV011099], the inhibition at 50 µM in the experiment with HepG2-A16-CD81EGFP cells [1] amounted to 86.3%; in experiment [2] (setting [4]), 101%; in experiment [2] (setting [5]), 102%; in the experiment with HepG2-A16-CD81EGFP cells [3], 88.4%.

On to `CCOc1ccc(-c2nc(NC(=O)c3cccc(S(C)(=O)=O)c3)sc2C)cc1` [MMV665913], for which the inhibition at 50 µM was 62.9% in the experiment on HepG2-A16-CD81EGFP cells [1], 95% in experiment [2] (setting [4]), 98% in experiment [2] (setting [5]) and 60.5% with HepG2-A16-CD81EGFP cells [3].

For `CCCCNCC(O)(c1ccc(Cl)cc1)c1ccc(Cl)cc1` [MMV665929], the inhibition at 50 µM in the experiment on HepG2-A16-CD81EGFP cells [1] was found to be 99.2%; in experiment [2] (setting [4]), 104%; in experiment [2] (setting [5]), 105%; with HepG2-A16-CD81EGFP cells [3], 95.9%.

As to `CCOc1cc(Br)c(C(C)NC(=O)c2cccc(OC)c2)cc1OCC` (stereo not shown) [MMV665796], the inhibition at 50 µM with HepG2-A16-CD81EGFP cells [1] was 96.9%; in experiment [2] (setting [4]), 103%; in experiment [2] (setting [5]) it was 104%; in the experiment with HepG2-A16-CD81EGFP cells [3], 88.4%.

Take `O=C(NC1CCN(Cc2ccccc2)CC1)c1cc(-c2ccncc2)nc2ccc(Cl)cc12` [MMV020275]: the inhibition at 50 µM in the experiment with HepG2-A16-CD81EGFP cells [1] was found to be 90.6%; in experiment [2] (setting [4]), 52%; in experiment [2] (setting [5]), 39%; in the experiment on HepG2-A16-CD81EGFP cells [3], 89.1%.

Consider `COc1ccc(C(=O)Nc2nonc2-c2ccc(OC)c(OC)c2)cc1Cl` [MMV011567], for which the inhibition at 50 µM is 2.69% in the experiment on HepG2-A16-CD81EGFP cells [1], 58% in experiment [2] (setting [4]), 80% in experiment [2] (setting [5]) and -1.34% in the experiment with HepG2-A16-CD81EGFP cells [3].

On to `CCCc1c(CC)c(=N)c2ccccc2n1C` [MMV008416], for which the inhibition at 50 µM was determined as 84% in the experiment on HepG2-A16-CD81EGFP cells [1], 101% in experiment [2] (setting [4]), 104% in experiment [2] (setting [5]) and 83.1% in the experiment on HepG2-A16-CD81EGFP cells [3].

Take `Fc1ccc2[nH]c3c(NCCCN4CCOCC4)ncnc3c2c1` [MMV019871]: the inhibition at 50 µM with HepG2-A16-CD81EGFP cells [1] came to 74.2%; in experiment [2] (setting [4]) it was 103%; in experiment [2] (setting [5]), 103%; in the experiment on HepG2-A16-CD81EGFP cells [3], 58.8%.

As for `COc1ccc(-n2ccnc2SCC(=O)Nc2cc(C)ccc2C)c(OC)c1` [MMV019258], the inhibition at 50 µM with HepG2-A16-CD81EGFP cells [1] was found to be 80.6%; in experiment [2] (setting [4]), 102%; in experiment [2] (setting [5]) it was 102%; in the experiment on HepG2-A16-CD81EGFP cells [3] it was 63.1%.

Turning to `CCOc1ccccc1CNC(=O)C1c2ccccc2C(=O)N(CC(C)C)C1c1cccs1` (stereo not shown) [MMV000653], the inhibition at 50 µM in the experiment on HepG2-A16-CD81EGFP cells [1] was found to be 94%; in experiment [2] (setting [4]), 104%; in experiment [2] (setting [5]), 106%; in the experiment with HepG2-A16-CD81EGFP cells [3], 90.2%.

For `Oc1ccccc1CNCC12CC3CC(CC(C3)C1)C2` [MMV020788], the inhibition at 50 µM with HepG2-A16-CD81EGFP cells [1] is 95.9%; in experiment [2] (setting [4]), 102%; in experiment [2] (setting [5]), 103%; with HepG2-A16-CD81EGFP cells [3], 94%.

For `COc1ccc(C2N(C)c3ccccc3N2C)cc1` [MMV666075], the inhibition at 50 µM with HepG2-A16-CD81EGFP cells [1] is 84.3%; in experiment [2] (setting [4]), 101%; in experiment [2] (setting [5]), 98%; in the experiment with HepG2-A16-CD81EGFP cells [3], 76.8%.

Regarding `O=C(Nc1ccc(Cl)cc1)N1CCN(c2ccc3nncn3n2)CC1` [MMV665917], the inhibition at 50 µM in the experiment with HepG2-A16-CD81EGFP cells [1] was determined as 8.42%; in experiment [2] (setting [4]) it was 60%; in experiment [2] (setting [5]), 62%; in the experiment on HepG2-A16-CD81EGFP cells [3] it was 38.3%.

Consider `COc1ccc(Br)cc1C1Nc2ccc3ccccc3c2C2=C1C(=O)CC(c1ccccc1)C2` (stereo not shown) [MMV020885], for which the inhibition at 50 µM came to 75.1% in the experiment on HepG2-A16-CD81EGFP cells [1], 102% in experiment [2] (setting [4]), 102% in experiment [2] (setting [5]) and 69.1% with HepG2-A16-CD81EGFP cells [3].

Regarding `CCCCCCOC(=O)C1=C(C)NC(=O)NC1c1ccccc1F` (stereo not shown) [MMV007686], the inhibition at 50 µM in the experiment on HepG2-A16-CD81EGFP cells [1] was determined as 4.22%; in experiment [2] (setting [4]) it was 69%; in experiment [2] (setting [5]) it was 63%; in the experiment on HepG2-A16-CD81EGFP cells [3] it was 19.1%.

For the molecule `CCOc1ccc(C2N(C)c3ccccc3N2C)cc1` [MMV075490], the inhibition at 50 µM in the experiment on HepG2-A16-CD81EGFP cells [1] was determined as 89.5%; in experiment [2] (setting [4]), 103%; in experiment [2] (setting [5]), 102%; in the experiment with HepG2-A16-CD81EGFP cells [3], 88%.

Take `CCOc1cccc(C(=O)Nc2ccc(-c3nc4ccccc4[nH]3)cc2)c1` [MMV019202]: the inhibition at 50 µM was 88.4% in the experiment with HepG2-A16-CD81EGFP cells [1], 101% in experiment [2] (setting [4]), 100% in experiment [2] (setting [5]) and 76.2% in the experiment on HepG2-A16-CD81EGFP cells [3].
